Experiment [1] has as its target protein kinase C. The experiment in a line: protein kinase C inhibition. The class given is biochemical. The following applies: read-out: IC50 for protein kinase C; serine/threonine kinase.
Experiment [2] relates to casein kinase II. The experiment in a line: casein kinase II inhibition. Format: biochemical. The following applies: 20 μM.
For experiment [3], the target named is Cdc2 kinase (Homo sapiens, UniProt P06493). The experiment in a line: Cdc2 kinase inhibition. The following applies: 20 μM. The class given is biochemical.
Sequence of Cdc2 kinase (P06493 whole entry): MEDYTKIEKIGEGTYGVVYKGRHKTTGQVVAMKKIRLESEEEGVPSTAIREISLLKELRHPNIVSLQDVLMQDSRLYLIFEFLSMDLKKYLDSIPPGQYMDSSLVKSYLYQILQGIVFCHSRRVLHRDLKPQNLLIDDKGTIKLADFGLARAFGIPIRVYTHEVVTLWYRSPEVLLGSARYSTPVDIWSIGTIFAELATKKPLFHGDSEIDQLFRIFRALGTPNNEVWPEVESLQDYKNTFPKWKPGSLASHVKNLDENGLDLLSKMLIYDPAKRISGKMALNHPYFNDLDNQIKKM
Sequence of Cdc2 kinase (P14635 whole entry partner): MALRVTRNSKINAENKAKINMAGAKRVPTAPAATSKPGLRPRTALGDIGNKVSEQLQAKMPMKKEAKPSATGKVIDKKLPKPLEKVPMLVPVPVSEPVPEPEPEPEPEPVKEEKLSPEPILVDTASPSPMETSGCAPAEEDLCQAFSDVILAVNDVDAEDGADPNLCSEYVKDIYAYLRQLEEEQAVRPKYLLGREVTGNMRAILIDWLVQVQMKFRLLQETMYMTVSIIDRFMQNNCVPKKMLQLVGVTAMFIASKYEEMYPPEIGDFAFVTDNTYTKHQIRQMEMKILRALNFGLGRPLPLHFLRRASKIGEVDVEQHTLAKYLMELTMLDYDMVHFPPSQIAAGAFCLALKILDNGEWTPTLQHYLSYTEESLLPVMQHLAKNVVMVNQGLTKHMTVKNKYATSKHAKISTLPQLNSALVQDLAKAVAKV
Experiment [4] deals with T1, EGF receptor (Homo sapiens, UniProt P00533). The experiment in a line: kinetic study of kinase inhibition. The class given is biochemical.
T1 sequence (P00533 25-1210): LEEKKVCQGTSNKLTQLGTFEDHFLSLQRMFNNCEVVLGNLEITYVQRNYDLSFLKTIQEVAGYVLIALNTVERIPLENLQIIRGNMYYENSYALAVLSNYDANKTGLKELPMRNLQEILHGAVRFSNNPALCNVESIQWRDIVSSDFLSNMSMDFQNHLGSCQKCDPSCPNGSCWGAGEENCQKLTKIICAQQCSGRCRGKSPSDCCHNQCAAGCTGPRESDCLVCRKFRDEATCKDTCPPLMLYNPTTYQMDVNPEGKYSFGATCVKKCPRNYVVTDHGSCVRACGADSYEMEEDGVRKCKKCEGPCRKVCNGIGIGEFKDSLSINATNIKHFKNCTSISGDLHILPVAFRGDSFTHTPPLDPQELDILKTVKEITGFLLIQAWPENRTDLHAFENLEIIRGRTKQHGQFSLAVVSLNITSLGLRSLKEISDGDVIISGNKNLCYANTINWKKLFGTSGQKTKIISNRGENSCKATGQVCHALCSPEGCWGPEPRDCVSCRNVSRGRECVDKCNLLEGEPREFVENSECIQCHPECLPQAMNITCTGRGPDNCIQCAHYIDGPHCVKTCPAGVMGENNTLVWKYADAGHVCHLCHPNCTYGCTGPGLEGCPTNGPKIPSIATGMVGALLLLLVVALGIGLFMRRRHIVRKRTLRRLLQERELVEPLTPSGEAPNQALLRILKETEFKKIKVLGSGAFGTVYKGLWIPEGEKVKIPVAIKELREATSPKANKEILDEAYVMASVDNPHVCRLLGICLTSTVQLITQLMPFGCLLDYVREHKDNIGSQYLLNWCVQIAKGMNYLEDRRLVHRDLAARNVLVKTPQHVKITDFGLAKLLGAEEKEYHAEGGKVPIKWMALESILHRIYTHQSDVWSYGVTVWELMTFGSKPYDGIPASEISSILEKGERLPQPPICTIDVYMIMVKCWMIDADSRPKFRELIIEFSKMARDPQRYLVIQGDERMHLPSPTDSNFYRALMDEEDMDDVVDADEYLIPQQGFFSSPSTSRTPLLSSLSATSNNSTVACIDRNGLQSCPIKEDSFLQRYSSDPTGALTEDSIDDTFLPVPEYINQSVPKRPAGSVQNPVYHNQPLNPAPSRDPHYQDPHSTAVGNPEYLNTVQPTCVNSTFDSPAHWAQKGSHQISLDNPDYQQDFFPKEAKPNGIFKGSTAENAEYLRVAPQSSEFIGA
The test system of experiment [5] is casein kinase I. The experiment in a line: casein kinase I inhibition. The class given is biochemical. The following applies: 20 μM.
In experiment [6] the target is T1, EGF receptor. The experiment in a line: autophosphorylation of EGF receptor in A431 cells. Format: cell-based.
For experiment [7], the target named is p43^v‐abl. In words: p43v-abl tyrosine kinase inhibition. The class given is biochemical. The following applies: read-out: IC50 for p43^v‐abl.
The target of experiment [8] is epidermal growth factor (EGF) receptor kinase (Homo sapiens, UniProt P00533). In words: EGF receptor kinase inhibition. The class given is biochemical. The following applies: read-out: IC50 for epidermal growth factor (EGF) receptor kinase.
Sequence of epidermal growth factor (EGF) receptor kinase (P00533 25-1210): as above
Experiment [9] deals with insulin receptor kinase (Homo sapiens, UniProt P06213). The experiment in a line: insulin receptor kinase inhibition. Format: biochemical. The following applies: read-out: IC50 for insulin receptor kinase.
Sequence of insulin receptor kinase (P06213 28-1382): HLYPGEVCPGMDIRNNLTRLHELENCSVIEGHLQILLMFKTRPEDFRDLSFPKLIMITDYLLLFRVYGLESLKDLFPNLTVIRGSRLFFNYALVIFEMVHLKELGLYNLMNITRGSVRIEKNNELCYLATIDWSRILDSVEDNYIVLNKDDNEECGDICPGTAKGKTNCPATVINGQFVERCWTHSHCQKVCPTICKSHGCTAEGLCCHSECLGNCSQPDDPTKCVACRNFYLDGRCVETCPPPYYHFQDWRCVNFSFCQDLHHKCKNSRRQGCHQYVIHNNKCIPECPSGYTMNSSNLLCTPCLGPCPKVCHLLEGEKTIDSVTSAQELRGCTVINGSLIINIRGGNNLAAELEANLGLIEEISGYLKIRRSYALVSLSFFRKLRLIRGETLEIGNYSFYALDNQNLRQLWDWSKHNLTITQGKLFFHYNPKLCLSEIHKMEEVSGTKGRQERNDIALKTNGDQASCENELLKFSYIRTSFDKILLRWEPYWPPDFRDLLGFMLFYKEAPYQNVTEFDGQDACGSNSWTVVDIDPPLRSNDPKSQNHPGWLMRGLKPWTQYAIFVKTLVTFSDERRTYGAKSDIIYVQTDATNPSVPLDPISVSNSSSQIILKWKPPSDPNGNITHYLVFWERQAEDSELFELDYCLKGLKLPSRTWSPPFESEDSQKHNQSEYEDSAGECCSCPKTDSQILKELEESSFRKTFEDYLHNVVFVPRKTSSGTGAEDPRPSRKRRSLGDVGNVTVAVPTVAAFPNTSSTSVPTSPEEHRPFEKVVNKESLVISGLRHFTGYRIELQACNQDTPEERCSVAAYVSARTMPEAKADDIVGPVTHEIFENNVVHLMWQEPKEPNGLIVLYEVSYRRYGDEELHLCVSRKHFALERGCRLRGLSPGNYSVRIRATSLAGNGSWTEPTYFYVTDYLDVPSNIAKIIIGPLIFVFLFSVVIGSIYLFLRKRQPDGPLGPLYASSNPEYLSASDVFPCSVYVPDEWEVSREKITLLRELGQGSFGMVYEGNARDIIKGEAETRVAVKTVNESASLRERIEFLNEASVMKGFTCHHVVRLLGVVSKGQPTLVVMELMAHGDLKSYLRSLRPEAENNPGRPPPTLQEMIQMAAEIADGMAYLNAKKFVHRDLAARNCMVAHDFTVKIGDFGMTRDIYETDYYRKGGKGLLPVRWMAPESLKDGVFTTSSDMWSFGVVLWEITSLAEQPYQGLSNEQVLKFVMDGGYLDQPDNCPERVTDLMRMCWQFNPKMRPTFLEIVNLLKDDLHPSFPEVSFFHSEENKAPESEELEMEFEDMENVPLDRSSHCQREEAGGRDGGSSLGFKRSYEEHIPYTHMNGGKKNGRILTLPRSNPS
Experiment [10] deals with p60^c‐src (Homo sapiens, UniProt P12931). The experiment in a line: p60c-src tyrosine kinase inhibition. Format: biochemical. The following applies: read-out: IC50 for p60^c‐src.
Sequence of p60^c‐src (P12931 whole entry): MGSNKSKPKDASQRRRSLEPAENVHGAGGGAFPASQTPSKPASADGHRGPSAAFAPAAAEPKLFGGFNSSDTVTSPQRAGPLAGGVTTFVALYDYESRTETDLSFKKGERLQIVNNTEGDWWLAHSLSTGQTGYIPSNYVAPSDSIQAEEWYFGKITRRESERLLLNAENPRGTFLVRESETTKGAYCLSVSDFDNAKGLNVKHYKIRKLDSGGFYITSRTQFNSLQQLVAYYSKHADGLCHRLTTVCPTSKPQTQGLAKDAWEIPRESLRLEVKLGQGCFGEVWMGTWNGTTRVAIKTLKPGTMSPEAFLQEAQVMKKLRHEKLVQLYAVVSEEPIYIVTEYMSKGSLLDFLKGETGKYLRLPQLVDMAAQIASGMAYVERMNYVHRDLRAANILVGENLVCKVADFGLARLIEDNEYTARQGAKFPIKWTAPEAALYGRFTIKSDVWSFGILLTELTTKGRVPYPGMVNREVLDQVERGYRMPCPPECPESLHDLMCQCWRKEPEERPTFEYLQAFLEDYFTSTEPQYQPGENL
The target of experiment [11] is erbB‐2 (Homo sapiens, UniProt P04626). The experiment in a line: erbB-2 tyrosine kinase inhibition. Format: biochemical. The following applies: read-out: IC50 for erbB‐2.
For experiment [12], the system named is cAMP‐dependent protein kinase. In words: cAMP-dependent protein kinase inhibition. The class given is biochemical. The following applies: 20 μM.

Regarding `O=C1OC(c2ccc(O)c(O)c2)=C/C1=C\c1ccc(O)c(O)c1` [BE‐23372M], the IC50 (commonly the concentration that gives 50% inhibition) worked out at 4100 nM in [1]; 1000 nM in experiment [7]; 30 nM in experiment [8]; 3300 nM in experiment [9]; 4500 nM in [10]; 420 nM in experiment [11]. Moreover, the “inhibition of casein kinase II” value in experiment [2] is reported as “not inhibited”. Besides, the “inhibition of Cdc2 kinase” value in experiment [3] was “not inhibited”. Further, the “mode of inhibition with respect to ATP” value in experiment [4] (ATP) was “competitive”. In addition, the “mode of inhibition with respect to the substrate peptide” value in experiment [4] (substrate peptide) is “competitive”. Further, the “inhibition of casein kinase I” value in experiment [5] was “not inhibited”. Further, the “Autophosphorylation of EGP receptor in A431 cells” value in experiment [6] is “inhibited”. For the same compound, the “inhibition of cAMP‐dependent protein kinase” value in experiment [12] was “not inhibited”.

The record behind these values is publication PMC5919452 (Japanese Journal of Cancer Research : Gann, 1994).
